What all share (test): MIC by agar dilution method
What all share (type): cell-based

For assay [1], the system named is Pseudomonas aeruginosa IFO 3455. To be noted: IFO3455, test organism (5), Trypticase soy agar, about 10^8 CFU/mℓ, overnight at 37°C. Here is the method: (§1) With regard to the objective compounds as obtained in Examples 2 to 5 and 17 to 19, MICs (µg/mℓ) were measured by the method to be described below and the results are tabulated in the following table.
(§2) The MIC of a test compound was determined by the agar dilution method. Thus, 1.0 mℓ each of successively diluted,; aqueous solutions of a test compound are poured in a petri dish, respectively, and then 9.0 mℓ of Trypticase soy agar was poured, followed by mixing. A suspension (about 10^8 CFU/ mℓ) of a test organism was smeared on the mixed agar plates. After incubation overnight at 37°C, the minimum concentration of the test compound to inhibit fully the growth of the test organism is determined as the minimal inhibitory concentration (MIC).
(§3) • (1) Escherchia coli NIHJ JC-2; • (2) Serratia marcescens IFO 12648 • (3) Proteus vulgaris IFO 3988 • (4) Proteus mirabilis IFO 3849 • (5) Pseudomonas aeruginosa IFO 3455 • (6) Enterobacter cloacae IFO 12937

For assay [2], the system named is Enterobacter cloacae IFO 12937. To be noted: IFO12937, test organism (6), Trypticase soy agar, about 10^8 CFU/mℓ, overnight at 37°C. The procedure:
as §1, §2, §3

Assay [3] deals with Serratia marcescens IFO 12648. The following applies: IFO12648, test organism (2), Trypticase soy agar, about 10^8 CFU/mℓ, overnight at 37°C. Here is the method: as §1, §2, §3
In assay [4] the test system is Proteus vulgaris IFO 3988. To be noted: IFO3988, test organism (3), Trypticase soy agar, about 10^8 CFU/mℓ, overnight at 37°C. Here is the method: as §1, §2, §3
Assay [5] relates to Proteus mirabilis IFO 3849. To be noted: IFO3849, test organism (4), Trypticase soy agar, about 10^8 CFU/mℓ, overnight at 37°C. The procedure: as §1, §2, §3
In assay [6] the test system is Escherchia coli NIHJ JC-2. To be noted: test organism (1); Trypticase soy agar, about 10^8 CFU/mℓ, overnight at 37°C. Here is the method:
as §1, §2, §3

Structures can show the parent of a compound that is named as a salt.

Regarding `CC(C)(O/N=C(\C(=O)N[C@@H]1C(=O)N(OCC(=O)O)[C@H]1COC(N)=O)c1csc(N)n1)C(=O)O` (relative stereo) [Example 18, trans-3-[2-(2-aminothiazol - 4-yl) - (Z) -2-(1-carboxy-1-methylethoxyimino)acetamido]-4-carbamoyloxymethyl-l-carboxymethoxy-2-azetidinone disodium salt], the MIC (in general, the lowest concentration found to suppress growth) in assay [1] is 12.5 µg/mL; in assay [2] it was 0.78 µg/mL; in assay [3] it was 0.39 µg/mL; in assay [4], less than 0.1 µg/mL; in assay [5] it was less than 0.1 µg/mL; in assay [6] it was 0.78 µg/mL.
Turning to `CO/N=C(\C(=O)N[C@@H]1C(=O)N(OCC(=O)O)[C@H]1C)c1csc(N)n1` [Example 2, (3S,4S)-3-[2-aminothiazol-4-yl)-(Z)-2-methoxyiminoacetamido]-1-carboxymethoxy-4-methyl-2-azetidinone monosodium salt], the MIC in assay [1] is greater than 100 µg/mL; in assay [2] it was 12.5 µg/mL; in assay [3], 0.39 µg/mL; in assay [4], 0.39 µg/mL; in assay [5], 0.39 µg/mL; in assay [6] it was 0.39 µg/mL.
Consider `NC(=O)OC[C@H]1[C@H](NC(=O)/C(=N\OCC(=O)O)c2csc(N)n2)C(=O)N1OCC(=O)O` (relative stereo) [Example 17, trans-3-[2-(2-aminothiazol-4-yl)-(Z)-2-carboxymethoxyiminoacetamido]-4-carbamoyloxymethyl-l-carboxy-methoxy-2-azetidinone disodium salt], for which the minimum inhibitory concentration (MIC) in assay [1] is 100 µg/mL; in assay [2], 0.78 µg/mL; in assay [3], 0.39 µg/mL; in assay [4] it was 0.39 µg/mL; in assay [5] it was 0.39 µg/mL; in assay [6] it was 0.39 µg/mL.
Regarding `C[C@H]1[C@H](NC(=O)/C(=N\OC(C)(C)C(=O)O)c2csc(N)n2)C(=O)N1OCC(=O)O` [Example 3, (3S,4S)-3-[2-(2-aminothiazol-4-yl)-(Z)-2-(1-carboxy-1-methylethoxyimino)acetamido]-1-carboxymethoxy-4-methyl-2-azetidinone disodium salt], the MIC in assay [1] was 6.25 µg/mL; in assay [2] it was 12.5 µg/mL; in assay [3], 0.39 µg/mL; in assay [4] it was less than 0.1 µg/mL; in assay [5], less than 0.1 µg/mL; in assay [6] it was 0.39 µg/mL.
With `CCN1CCN(C(=O)N[C@@H](C(=O)N[C@@H]2C(=O)N(OCC(=O)O)[C@H]2C)c2ccccc2)C(=O)C1=O` [Example 4, (3S,4S)-1-carboxymethoxy-3-[(D)-2-(4-ethyl-2,3-dioxopiperazine-1-carbonylamino)-2-phenylacetamido]-4-methyl-2-azetidinone monosodium salt], the MIC in assay [1] is 25 µg/mL; in assay [2] it was greater than 100 µg/mL; in assay [3], 6.25 µg/mL; in assay [4], 1.56 µg/mL; in assay [5] it was 12.5 µg/mL; in assay [6] it was 12.5 µg/mL.
Regarding `C[C@H]1[C@H](NC(=O)/C(=N\OCC(=O)O)c2csc(N)n2)C(=O)N1OCC(=O)O` [Example 19, (3S,4S)-3-[2-(2-aminothiazol-4-yl)-(Z)-2-carboxymethoxy-iminoacetamido]-1-carboxymethoxy-4-methyl-2-azetidinone disodium salt], the MIC in assay [1] was greater than 100 µg/mL; in assay [2], 50 µg/mL; in assay [3], 0.39 µg/mL; in assay [4], 0.39 µg/mL; in assay [5] it was 0.39 µg/mL; in assay [6], 0.39 µg/mL.
As to `CC(C)(O/N=C(\C(=O)N[C@H]1CN(OCC(=O)O)C1=O)c1csc(N)n1)C(=O)O` [Example 5, (3S)-3-[2-(2-aminothiazol-4-yl)-(Z)-2-(1-carboxy-1-methylethoxyimino)acetamido]-1-carboxymethoxy-2-azetidinone disodium salt], the MIC in assay [1] came out at 6.25 µg/mL; in assay [2] it was 50 µg/mL; in assay [3] it was 1.56 µg/mL; in assay [4] it was 0.78 µg/mL; in assay [5] it was 1.56 µg/mL; in assay [6], 0.78 µg/mL.

The values above are taken from patent EP0135194A1, “Azetidinones and their production” (Takeda Chemical Industries, Ltd., priority 1983, dated 1985).
